Values quoted from earlier work, collected in patent EP3072528B1, “COMPOSITION COMPRISING VEMURAFENIB AND CATIONIC COPOLYMER BASED ON METHACRYLATES” (ratiopharm GmbH, priority 2015, dated 2016).

Conditions: reported; BCS IV compound

CCCS(=O)(=O)Nc1ccc(F)c(C(=O)c2c[nH]c3ncc(-c4ccc(Cl)cc4)cc23)c1F [Vemurafenib base, N-(3-{[5-(4-chlorophenyl)-1H-pyrrolo[2,3-b]pyridin-3-yl]carbonyl}-2,4-difluorophenyl)propane-1-sulfonamide]
solubility in aqueous and physiological solvents: practically insoluble
